{"source": "patent EP4733310A1", "about": "“NOVEL PEPTIDE AND USE THEREOF” (Gemvax & Kael Co., Ltd., priority 2023, dated 2024)", "key": {"[1]": {"experiment": "Pharmacokinetic profile after subcutaneous administration to rats", "type": "in vivo", "conditions": "subcutaneous (SC), Sprague Dawley rats; FIG. 3", "description": "(§1) To determine the pharmacokinetic profile of GV2001 prepared in Example 1, plasma was collected from rats administered with GV2001. The collected plasma was pretreated by protein precipitation using nine times the volume of methanol containing 0.1% formic acid, followed by centrifugation at 16,100 g for 10 minutes.\n(§2) GV2001 and GV1001 were administered subcutaneously (SC) to three Sprague Dawley rats in each group. Blood samples were collected at 0.033, 0.083, 0.17, 0.25, 0.5, 1, and 2 hours after administration. The collected blood samples were centrifuged to separate plasma, pretreated, and analyzed using LC-MS. Pharmacokinetic parameters were calculated using the non-compartmental analysis model of Phoenix WinNonlin (Pharsight ver. 6.4, USA)."}, "[2]": {"test_system": "retinal pigment epithelial cell line ARPE-19", "experiment": "Epithelial-mesenchymal transition (cadherin 1, vimentin; confocal microscope) in an H2O2 cell model of age-related macular degeneration", "type": "cell-based", "conditions": "ARPE-19, H2O2 (50 µM), FIG. 15", "description": "(§3) A cell model of age-related macular degeneration was established by treating the retinal pigment epithelial cell line ARPE-19 with hydrogen peroxide (H2O2) to generate reactive oxygen species.\n(§4) The experimental groups were set up according to Table 4 below, and the efficacy of GV2001 was evaluated.\nThe degree of epithelial-mesenchymal transition (EMT), which indicates retinal pigment epithelial cell degeneration, was evaluated by observing changes in cadherin 1, an epithelial cell marker, and vimentin, a mesenchymal cell marker, using a confocal microscope."}, "[3]": {"test_system": "retinal pigment epithelial cells (ARPE-19)", "experiment": "Reactive oxygen species detection with DCF-DA in an H2O2 cell model of age-related macular degeneration", "type": "cell-based", "conditions": "ARPE-19, H2O2 (50 µM), FIG. 14", "description": "as §3, §4\nUsing 2',7'-dichlorofluorescin diacetate (DCF-DA), a dye for detecting reactive oxygen species, changes in reactive oxygen species levels in retinal pigment epithelial cells (ARPE-19) treated with GV2001 were examined under a fluorescence microscope."}, "Aβ1-42": {"test_system": "Aβ1-42", "experiment": "Aβ1-42 ELISA of cerebral cortex protein samples", "type": "in vivo", "conditions": "5xFAD mice, 2 mg/kg subcutaneous, 3 times/week, 8 weeks, FIG. 6"}, "microglia": {"test_system": "microglia", "experiment": "Anti-Iba-1 antibody staining of brain tissue sections (gliosis)", "type": "in vivo", "conditions": "5xFAD mice, 2 mg/kg subcutaneous, 3 times/week, 8 weeks, FIGS. 12 and 13", "description": "(§5) An efficacy evaluation of GV2001 based on an Alzheimer's disease animal model was conducted according to Table 3 below.\n(§6) 5xFAD mice are a well-established mouse model of Alzheimer's disease, in which amyloid-β is produced in neurons. Amyloid-β accumulation begins at approximately 2 months of age, neuronal damage progresses from around 6 months of age, and impairment in spatial learning ability develops from approximately 9 months of age. The mice were purchased from Jackson Laboratory, and seven-month-old mice obtained through breeding were used in the experiment.\nMouse brain tissue sections were stained with an anti-Iba-1 antibody, which stains microglia, to analyze the level of gliosis in the mouse brain."}, "[4]": {"experiment": "Pharmacokinetic profile after intravenous administration to rats", "type": "in vivo", "conditions": "Sprague Dawley rats, FIG. 2", "description": "as §1\nas §2, with “intravenously (IV)” for “subcutaneously (SC)”, “of the” for “of”, “(Pharsight,” for “(Pharsight”, “USA) program.” for “USA).”"}, "amyloid-β plaques": {"test_system": "amyloid-β plaques", "experiment": "Thioflavin-S staining of brain tissue sections", "type": "in vivo", "conditions": "5xFAD mice, 2 mg/kg subcutaneous, 3 times/week, 8 weeks", "description": "as §5, §6\n(§7) Mouse brain tissue sections were stained with thioflavin-S and anti-amyloid antibody (6E10) to identify amyloid-β plaques and amyloid-β protein, respectively."}, "amyloid-β protein": {"test_system": "amyloid-β protein", "experiment": "Anti-amyloid antibody (6E10) staining of brain tissue sections", "type": "in vivo", "conditions": "5xFAD mice, 2 mg/kg subcutaneous, 3 times/week, 8 weeks; both the cerebral cortex and hippocampus; FIGS. 10 and 11", "description": "as §5, §6, §7"}, "amyloid-β": {"test_system": "amyloid-β", "experiment": "Immunoblot of hippocampal protein samples with anti-amyloid antibody (6E10)", "type": "in vivo", "conditions": "5xFAD mice, 2 mg/kg subcutaneous, 3 times/week, 8 weeks, FIG. 5", "description": "as §5, §6\nIn order to determine amyloid-β levels in the brains of each group of mice, immunoblotting was performed on mouse hippocampal protein samples using an anti-amyloid antibody (6E10)."}, "5xFAD mice": {"test_system": "5xFAD mice", "experiment": "Morris Water Maze Test in an Alzheimer's disease mouse model", "type": "in vivo", "conditions": "2 mg/kg subcutaneous, 3 times/week, 8 weeks", "description": "An efficacy evaluation of GV2001 based on an Alzheimer's disease animal model was conducted according to Table 3 below. [TABLE 3] [table] 5xFAD mice are a well-established mouse model of Alzheimer's disease, in which amyloid-β is produced in neurons. Amyloid-β accumulation begins at approximately 2 months of age, neuronal damage progresses from around 6 months of age, and impairment in spatial learning ability develops from approximately 9 months of age. The mice were purchased from Jackson Laboratory, and seven-month-old mice obtained through breeding were used in the experiment. […] On day 11, a probe test was performed. […] In addition, the time spent in the target quadrant was increased in the GV1001 and GV2001 groups, confirming improvements in spatial learning ability (FIG. 4C)."}, "IL-1β, IL-6, and TNF-α": {"test_system": "IL-1β, IL-6, and TNF-α", "experiment": "qRT-PCR of inflammatory cytokine mRNA in hippocampal samples", "type": "in vivo", "conditions": "5xFAD mice, 2 mg/kg subcutaneous, 3 times/week, 8 weeks, FIG. 7", "description": "as §5, §6\nmRNA levels of cytokines involved in inflammation (IL-1β, IL-6, and TNF-α) were analyzed using qRT-PCR in mouse hippocampal samples."}, "[5]": {"experiment": "Stability in human plasma (LC-MS, residual peptide)", "type": "in vitro ADME", "conditions": "5 µM, 37 °C, 10, 60 and 240 minutes, FIG. 1", "description": "GV2001 and GV1001 were each added to human plasma and diluted to a concentration of 5 µM, followed by incubation at 37 °C for 10, 60, and 240 minutes with stirring. The reaction mixture was collected and pretreated by plasma protein precipitation using methanol containing 0.1% formic acid. The resulting supernatants were collected and analyzed by LC-MS under the conditions shown in Table 1 below to determine the percentage of residual peptide relative to the initial peptide amount."}, "[6]": {"conditions": "H2O2 for 2 hours then post-treatment for 24 hours, high-dose group"}, "[7]": {"conditions": "pretreatment for 2 hours then H2O2 for 24 hours, low-dose group"}}, "note": "Square brackets hold non-standard residues; d marks the D form. Peptide text beside a SMILES is read from it. pGlu = O=C1CC[C@@H](C(=O)O)N1"}
{"smiles": "CC[C@H](C)[C@H](NC(=O)[C@H](Cc1ccccc1)NC(=O)[C@H](CCCNC(=N)N)NC(=O)[C@H](CC(C)C)NC(=O)[C@H](CCCNC(=N)N)NC(=O)[C@H](CO)NC(=O)[C@@H](NC(=O)[C@H](CC(C)C)NC(=O)[C@H](CC(C)C)NC(=O)[C@H](C)NC(=O)[C@@H]1CCCN1C(=O)[C@H](CCCNC(=N)N)NC(=O)[C@H](C)NC(=O)[C@H](CCC(=O)O)NC(=O)[C@@H]1CCC(=O)N1)[C@@H](C)O)C(=O)N1CCC[C@H]1C(=O)N[C@@H](CCCCN)C(N)=O", "note": "[GV2001] ([pGlu]EARPALLTSRLRFIPK-NH2)", "values": [{"measurement": "in vivo stability (remaining in the body without degradation)", "setting": "[1]", "result": "greater in vivo stability than GV1001"}, {"measurement": "progression of EMT (cadherin 1, vimentin)", "setting": "[2]; [6]", "result": "reduced the progression of EMT"}, {"measurement": "progression of EMT (cadherin 1, vimentin)", "setting": "[2]; [7]", "result": "reduced the progression of EMT"}, {"measurement": "DCF-DA fluorescence expression (reactive oxygen species)", "setting": "[3]; [6]", "result": "decreased"}, {"measurement": "DCF-DA fluorescence expression (reactive oxygen species)", "setting": "[3]; [7]", "result": "decreased"}, {"measurement": "amyloid-β levels (Aβ1-42 ELISA)", "setting": "Aβ1-42", "result": "reduced level of amyloid-β protein"}, {"measurement": "gliosis levels (microglia staining, anti-Iba-1)", "setting": "microglia", "result": "more pronounced decrease in gliosis levels"}, {"measurement": "AUCt of GV2001 relative to GV1001", "setting": "[4]", "result": "more than four times higher"}, {"measurement": "AUC(0-t)", "setting": "[4]; rat, plasma, sampling up to 2 hours", "result": 107, "unit": "ng·h/mL"}, {"measurement": "amyloid-β plaque deposition (thioflavin-S)", "setting": "amyloid-β plaques; cerebral cortex, FIG. 8", "result": "reduction in amyloid-β plaque deposition"}, {"measurement": "amyloid-β plaque deposition (thioflavin-S)", "setting": "amyloid-β plaques; hippocampus, FIG. 9", "result": "substantially reduced plaque deposition"}, {"measurement": "amyloid-β protein levels (6E10 antibody staining)", "setting": "amyloid-β protein", "result": "more pronounced decrease in amyloid-β protein levels"}, {"measurement": "amyloid-β levels (immunoblot, 6E10)", "setting": "amyloid-β", "result": "reduction"}, {"measurement": "latency to locate the hidden platform", "setting": "5xFAD mice; 10-day training period, FIG. 4A", "result": "marked improvements in latency"}, {"measurement": "number of platform-zone crossings", "setting": "5xFAD mice; probe test on day 11, FIG. 4B", "result": "exhibited improvements"}, {"measurement": "time spent in the target quadrant", "setting": "5xFAD mice; probe test on day 11, FIG. 4C", "result": "increased"}, {"measurement": "mRNA levels of cytokines involved in inflammation (IL-1β, IL-6, and TNF-α)", "setting": "IL-1β, IL-6, and TNF-α", "result": "greater reduction in cytokine expression compared to the 5xFAD group"}, {"measurement": "percentage of residual peptide relative to the peptide amount before reaction", "setting": "[5]", "result": "higher at each time point than that of GV1001"}]}
